Source: ChEMBL document CHEMBL4616648, “Irijimasides A-E, Macrolide Glycosides from an Okeania sp. Marine Cyanobacterium” (J Nat Prod, 2020)

Species: Mus musculus
Assay: Inhibition of RANKL-induced osteoclastogenesis in mouse RAW264 cells assessed as reduction in TRAP activity incubated for 4 days
Type: functional, cell-based

SMILES	inhibition
C#CCCC/C=C/C=C/C1C/C(C)=C/[C@@H](OC)C[C@@H]2O[C@@](O)(CC(O[C@@H]3O[C@@H](C)[C@H](O)[C@@H](O)[C@H]3OC)[C@@H]2C)[C@H](C)C(=O)O1 (stereo not given in full)	Dose-dependent effect
C=CCC/C=C/C=C/C1C/C(C)=C/[C@@H](OC)C[C@@H]2O[C@@](O)(CC(O[C@@H]3O[C@@H](C)[C@H](O)[C@@H](OC)[C@H]3OC)[C@@H]2C)[C@H](C)C(=O)O1 (stereo not given in full)	Dose-dependent effect
C=CCC/C=C/C=C/C1C/C(C)=C/[C@@H](OC)C[C@@H]2O[C@@](O)(CC(O[C@@H]3O[C@@H](C)[C@H](O)[C@@H](O)[C@H]3OC)[C@@H]2C)[C@H](C)C(=O)O1 (stereo not given in full)	Dose-dependent effect
C=CCC/C=C/C=C/C1C/C(C)=C/[C@@H](OC)C[C@@H]2O[C@](O)(CC(=O)O1)CC(O[C@@H]1O[C@@H](C)[C@H](O)[C@@H](OC)[C@H]1OC)[C@@H]2C (stereo not given in full)	Dose-dependent effect
C=CCC/C=C/C=C/C1C/C(C)=C/[C@@H](OC)C[C@H]2CC(O[C@@H]3O[C@@H](C)[C@H](O)[C@@H](OC)[C@H]3OC)C[C@](O)(O2)[C@H](C)C(=O)O1 (stereo not given in full)	Dose-dependent effect

System: not listed separately
Assay: Cytotoxicity against mouse RAW264 cells at 3 to 30 uM by MTT assay
Type: cell-based

SMILES	Activity
C#CCCC/C=C/C=C/C1C/C(C)=C/[C@@H](OC)C[C@@H]2O[C@@](O)(CC(O[C@@H]3O[C@@H](C)[C@H](O)[C@@H](O)[C@H]3OC)[C@@H]2C)[C@H](C)C(=O)O1 (stereo not given in full)	Non-Toxic
C=CCC/C=C/C=C/C1C/C(C)=C/[C@@H](OC)C[C@@H]2O[C@@](O)(CC(O[C@@H]3O[C@@H](C)[C@H](O)[C@@H](OC)[C@H]3OC)[C@@H]2C)[C@H](C)C(=O)O1 (stereo not given in full)	Non-Toxic
C=CCC/C=C/C=C/C1C/C(C)=C/[C@@H](OC)C[C@@H]2O[C@@](O)(CC(O[C@@H]3O[C@@H](C)[C@H](O)[C@@H](O)[C@H]3OC)[C@@H]2C)[C@H](C)C(=O)O1 (stereo not given in full)	Non-Toxic
C=CCC/C=C/C=C/C1C/C(C)=C/[C@@H](OC)C[C@@H]2O[C@](O)(CC(=O)O1)CC(O[C@@H]1O[C@@H](C)[C@H](O)[C@@H](OC)[C@H]1OC)[C@@H]2C (stereo not given in full)	Non-Toxic
C=CCC/C=C/C=C/C1C/C(C)=C/[C@@H](OC)C[C@H]2CC(O[C@@H]3O[C@@H](C)[C@H](O)[C@@H](OC)[C@H]3OC)C[C@](O)(O2)[C@H](C)C(=O)O1 (stereo not given in full)	Non-Toxic
